The values below come from ChEMBL document CHEMBL1137017, “In vitro antiviral activity and cross-resistance profile of PL-100, a novel protease inhibitor of human immunodeficiency virus type 1” (Antimicrob Agents Chemother, 2007).

The subject of data set [1] is Human immunodeficiency virus 1. Description: Antiviral activity against wild type HIV1 NL4-3 infected in MT4 cells after 6 days by MTT assay. The conditions noted are these: Human immunodeficiency virus 1, NL4-3, MT4, 144 h. The data set is classed as functional, organism-based.
A further data set has as its target Protease (Human immunodeficiency virus 1, UniProt Q9YQ12). As to the kind of experiment: Inhibition of HIV1 protease.
A short description of data set [2]: Cytotoxicity against human MT4 cells after 6 days by MTT assay. The data set is classed as cell-based.
A further data set has as its target Cathepsin D (Homo sapiens, UniProt P07339). Description: Inhibition of human cathepsin D.
The nature of data set [3]: Inhibition of pig pepsin. The arrangement: species or system Sus scrofa.
Data set [4] relates to Human immunodeficiency virus 1. As to the kind of experiment: Antiviral activity against wild type HIV1 NL4-3 in HEK293 cells after 48 hrs by replication-deffective luciferase reporter gene-based phenotypic assay. The class given is functional, organism-based. The conditions noted are these: Human immunodeficiency virus 1, NL4-3, HEK293, 48 h.

Cathepsin D, sequence (P07339 65-162 limits assumed): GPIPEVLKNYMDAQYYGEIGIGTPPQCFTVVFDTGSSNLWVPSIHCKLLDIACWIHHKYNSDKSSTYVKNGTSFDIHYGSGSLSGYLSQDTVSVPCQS
Cathepsin D, sequence (P07339 169-412 limits assumed): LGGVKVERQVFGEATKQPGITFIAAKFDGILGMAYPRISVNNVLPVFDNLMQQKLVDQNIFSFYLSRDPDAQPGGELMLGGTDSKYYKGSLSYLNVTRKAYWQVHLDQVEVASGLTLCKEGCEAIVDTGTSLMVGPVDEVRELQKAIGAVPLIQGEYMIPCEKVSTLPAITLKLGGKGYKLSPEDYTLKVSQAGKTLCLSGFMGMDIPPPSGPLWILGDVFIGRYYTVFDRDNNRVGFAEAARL
Protease, sequence (Q9YQ12 whole entry): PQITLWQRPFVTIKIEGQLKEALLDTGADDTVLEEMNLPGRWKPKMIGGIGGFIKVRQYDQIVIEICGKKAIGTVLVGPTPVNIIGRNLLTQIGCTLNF

In data set [1], `CC(C)c1nc(CN(C)C(=O)N[C@H](C(=O)N[C@@H](Cc2ccccc2)C[C@H](O)[C@H](Cc2ccccc2)NC(=O)OCc2cncs2)C(C)C)cs1` [RITONAVIR] registered an EC50 of 61 nM.

At Protease, `CC(C)CN(C[C@@H](O)[C@H](Cc1ccccc1)NC(=O)O[C@H]1CCOC1)S(=O)(=O)c1ccc(N)cc1` gave an inhibitory constant (Ki) of 0.117 nM. Besides, the EC50 stood at 51 nM in data set [1] and 10.7 nM in data set [4]. The CC50 at 144 h in data set [2] was greater than 100000 nM. Besides, the results for the IC50 (on Cathepsin D; in data set [3]) were 15200 nM and 280 nM, respectively.

As to `CC(C)(C)NC(=O)[C@@H]1C[C@@H]2CCCC[C@@H]2CN1C[C@@H](O)[C@H](Cc1ccccc1)NC(=O)[C@H](CC(N)=O)NC(=O)c1ccc2ccccc2n1`, the EC50 in data set [1] is 12 nM; in data set [4] it was 1.8 nM. Besides, half-maximal cytotoxicity in data set [2] (CC50 at 144 h) was put at 19000 nM.

`CC(C)(C)NC(=O)[C@@H]1CN(Cc2cccnc2)CCN1C[C@@H](O)C[C@@H](Cc1ccccc1)C(=O)N[C@H]1c2ccccc2C[C@H]1O`: the concentration for a half-maximal effect (EC50) in data set [1] amounted to 67 nM; in data set [4] it was 7.8 nM. In data set [2], this molecule came in with a CC50 at 144 h greater than 100000 nM.

Take `Cc1cccc(C)c1OCC(=O)N[C@@H](Cc1ccccc1)[C@@H](O)C[C@H](Cc1ccccc1)NC(=O)[C@H](C(C)C)N1CCCNC1=O` [LOPINAVIR]: the EC50 in data set [1] is 19 nM; in data set [4], 2.8 nM. In data set [2], this molecule registered a CC50 at 144 h of 28000 nM.
